“And” between values parts separate entries of the source, which are not always exact repeats. Equal values may be shown once. The source made the active and inactive calls.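 The calls were made as follows: active = compounds giving half or more protection of infected cells from virus-caused growth loss, again on retest; inactive = the rest.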 Where a SMILES comes first, the peptide text is derived from it. [ ]: non-standard residue; d: D form. The star is where a group is joined. ξ: configuration not given here. ξPhe(4-NO2) = NC(Cc1ccc([N+](=O)[O-])cc1)C(=O)O; Boc = CC(C)(C)OC(=O)*; OBn = c1ccc(CO*)cc1; Bn = c1ccc(C*)cc1
Tested on: CEM cells HIV-1 protection, formazan growth assay
Assay: NCI AIDS Antiviral Assay
Conditions: for IC50: measured here: growth of uninfected CEM cells
In short: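 Category rules: moderately active means at least 50% protection on retest, and confirmed active means 100% protection reproducibly. The underlying data came from a formazan growth assay in HIV-1-infected CEM cells.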

| SMILES | EC50 [µM] | IC50 | outcome |
| --- | --- | --- | --- |
| CCOC(=O)C(=CNc1ccc(F)c(F)c1)C(=O)OCC | > 200 | 79.4 µM | – |
| CN1CCN(C)P1c1ccccc1 | > 1290 | > 1290 µM | – |
| OC[C@H]1C[C@@H]2Cc3ccccc3N2N1 | > 200 | > 200 µM | – |
| CC(=O)OCC1OC(OC(C)=O)C(On2nnc3c(-c4ccccc4)c(C)nn32)C(OC(C)=O)C1OC(C)=O (stereo unspecified) | > 60.3 | 31.6 µM | – |
| Cn1c(=O)c(Cl)c(N=[N+]=[N-])c2ccccc21 | > 75.9 | 55 µM | – |
| O=C(c1ccc(Cl)cc1Cl)N(/N=C/C=C/c1ccccc1)c1nnc(-c2ccccc2)c(-c2ccccc2)n1 | > 13.2 | > 13.2 µM | – |
| CN(C)c1ccc(/C=C/C=C2\C=Cc3ccccc32)cc1 | > 36.3 | > 36.3 µM | – |
| CC(=Nc1c2ccccc2nc2ccccc12)N(C)C | > 200 | 28.2 µM | – |
| O=c1n(-c2ccc(Cl)c(Cl)c2)c(=O)n(-c2ccc(Cl)c(Cl)c2)c(=O)n1-c1ccc(Cl)c(Cl)c1 | > 200 | 5.89 µM | – |
| CC(C)(C)OC(=O)NC(Cc1ccc([N+](=O)[O-])cc1)C(=O)NCC(=O)OCc1ccccc1 (stereo unspecified) (Boc-[ξPhe(4-NO2)]-Gly-OBn) | > 200 | 33.1 µM | – |
| CN(C)CCC(=O)CCN(C)C | > 1020 | 186 µM | – |
| CN(C)C(=O)COc1ccc(Cl)cc1Cl | > 200 | > 200 µM | – |
| CCOC(=O)C1=C(N)SCCC1 | > 1320 | 257 µM | – |
| N=C(/C=C/c1ccc(-c2cn3cc(/C=C/C(=N)N4CCCC4)ccc3n2)cc1)N1CCCC1 | 25.1 | 64.6 µM | – |
| N#CCC(=O)NN=C1CCCCC1 | > 200 | > 200 µM | – |
| CC(C)(C)c1cc2c(O)c(c1)C(c1ccccc1)c1cc(C(C)(C)C)cc(c1O)Cc1cc(C(C)(C)C)cc(c1O)C(c1ccccc1)c1cc(C(C)(C)C)cc(c1O)C2 (stereo unspecified) | > 50.1 | > 50.1 µM | – |
| COP(=O)(OC)/C(=C/c1cnc[nH]1)NC=O | > 200 | > 200 µM | – |
| Cc1cc2c(C(C)C)c(O)c(O)c(C=O)c2c(O)c1-c1c(C)cc2c(C(C)C)c(O)c(O)c(C=Nc3ccc(Cc4ccc(N)cc4)cc3)c2c1O | 5.5 | 44.7 µM | – |
| CCc1ccc2oc(-c3cc(O)c(-c4nc5cc(CC)ccc5o4)cc3O)nc2c1 | > 200 | > 200 µM | – |
| Cc1cn(C2CC3C(COC(C)N3O)O2)c(=O)[nH]c1=O (stereo unspecified) | > 200 | > 200 µM | – |
| CC(C)=Nn1cnc2c1NC(C)(C)N=C2C(N)=O | > 200 | > 200 µM | – |

| SMILES | EC50 [µM] | IC50 | outcome |
| --- | --- | --- | --- |
| CCOC(=O)CCN1C(=O)c2ccc(NC(=O)C(=O)O)cc2S1(=O)=O | > 200 | > 200 µM | – |
| NC(N)=NS(=O)(=O)c1ccc(NCc2c3ccccc3[n+]([O-])c3ccccc23)cc1 | – | – | inactive |
| COc1ccc(NC2Oc3cc4c(cc3C(c3cc(OC)c(OC)c(OC)c3)C2C)OCO4)cc1 (stereo unspecified) | > 20 | 0.398 µM | – |
| CCCc1cc(=O)oc2c3c(cc(OC(C)C)c12)O[C@H](C)[C@@H](C)[C@H]3O | > 200 | 12 µM | – |
| COc1ccc(N=C(Nc2ccc(OC)cc2)C(=Nc2ccc(OC)cc2)Nc2ccc(OC)cc2)cc1 | > 200 | 28.2 µM | – |
| CN(C)CCCCN1c2ccccc2Sc2cc(N=[N+]=[N-])ccc21 | > 200 | 2.45 µM | – |
| O=C1c2ccccc2CC12Cc1ccc3c(c1C2)CCC3 (stereo unspecified) | > 200 | 89.1 µM | – |
| CCOC(=O)CCc1ccc(NC(=O)/C=C/c2ccc([N+](=O)[O-])o2)cc1 | > 200 | 0.372 µM | – |
| Cc1ccc(/C(=C\C(=O)C(=O)NC23CC4CC(CC(C4)C2)C3)Sc2ccccc2)cc1 | > 200 | 117 µM | – |
| Nc1nc(Cl)cc(NCC2(CO)CC(CCc3ccccc3)C2)n1 (stereo unspecified) | > 20 | 14.8 µM | – |
| COc1ccc(-c2cn3ccsc3n2)cc1 | > 195 | 162 µM | – |
| CCC(C)C(NC(=O)C(CCC(N)=O)NC(=O)CN)C(=O)NC(Cc1ccccc1)C(=O)NC(CO)C(=O)NC(CCCN=C(N)N)C(N)=O (stereo unspecified) (H-GQIFSR-NH2; configuration not given here) | – | – | inactive |
| O=C(NCCOC(=O)CCCCCCCCC(=O)OCCNC(=O)NC(=O)c1cn(Cc2ccccc2)c(=O)[nH]c1=O)NC(=O)c1cn(Cc2ccccc2)c(=O)[nH]c1=O | > 43.7 | > 43.7 µM | – |
| Nc1nc(Cl)cc(OCC2(CO)CC(OCc3ccccc3)C2)n1 (stereo unspecified) | > 200 | 41.7 µM | – |
| CC(C)CC(NC(=O)C(Cc1ccccc1)NC(=O)C(COCc1ccccc1)NC(=O)OC(C)(C)C)C(=O)OCc1ccccc1 (stereo not drawn) (Boc-Ser(Bn)-Phe-Leu-OBn; configuration not given here) | > 200 | 13.2 µM | – |
| CN(C)N1C(=O)S/C(=C\c2ccc([N+](=O)[O-])cc2)C1=O | > 200 | > 200 µM | – |
| CCN(CC)CCCNc1ccc([N+](=O)[O-])c2nc3ccc(OC)cc3c(N)c12 | > 200 | 0.776 µM | – |
| O=c1[nH]cnc2sc(Nc3ccccc3)nc12 | – | – | inactive |
| CCCC(CC)c1c(O)c(O)c(C(CC)CCC)c(C(CC)CCC)c1C(CC)CCC (stereo unspecified) | > 100 | 15.5 µM | – |
| CCOC(=O)c1c(CN2CCNCC2)nc2ccc(Cl)cc2c1-c1ccccc1 | > 63.1 | 33.9 µM | – |
| C(=C/C1CCCOC1)/CCc1ccccc1 (stereo unspecified) | – | – | inactive |

| SMILES | EC50 [µM] | IC50 | outcome |
| --- | --- | --- | --- |
| CN1c2ccccc2N(C)C23N(C)c4ccccc4N(C)C12N(C)c1ccccc1N3C (stereo unspecified) | > 43.7 | > 43.7 µM | – |
| CC(C)=CCC/C(C)=C/Cc1c(O)ccc2cc(-c3cc(O)cc(O)c3CC=C(C)C)oc12 | > 22.4 | 18.2 µM | – |
| Nc1ccc(C(=O)NN2C(=O)C(Cl)C2c2ccccc2O)cc1 (stereo unspecified) | > 200 | 29.5 µM | – |
| CSc1c(C(C)=O)c(O)n(-c2ccc(Cl)cc2)c(=O)c1C#N | 35.5 | 36.3 µM | – |
| Cc1cccc(C)c1NC(=O)C1=NC(=S)NC(c2ccccc2)C1c1nc2ccccc2s1 (stereo unspecified) | – | – | inactive |
| CCC(C)C(NC(=O)C(CCC(N)=O)NC(=O)C(CCC(N)=O)NC(=O)C(CO)NC(=O)C(CC(C)C)NC(=O)C(CC(N)=O)NC(=O)C(N)C(C)O)C(=O)NC(CO)C(=O)NC(CO)C(=O)NC(CC(N)=O)C(=O)O (stereo unspecified) (H-TNLSQQISSN-OH; configuration not given here) | > 28.8 | > 28.8 µM | – |
| CCOC(=O)CCC[P+](c1ccccc1)(c1ccccc1)c1ccccc1 | > 200 | 22.4 µM and 7.76 µM | – |
| NNC(=O)/C(NC(=O)c1ccccc1)=C(\N)c1cccc([N+](=O)[O-])c1 | > 15.1 | > 15.1 µM | – |
| Cc1ncc([N+](=O)[O-])n1CC(O)Cn1cnc([N+](=O)[O-])n1 (stereo unspecified) | > 200 | > 200 µM | – |
| CCOC1=C(c2ccccc2)N2CCCCC2O1 (stereo unspecified) | > 200 | 2.57 µM | – |
| Cc1ccc(C2C(C(=O)C(C)(C)C)N2S(=O)(=O)c2ccc(C)cc2)cc1 (stereo unspecified) | > 200 | > 200 µM | – |
| C1CNCCSCCCSCCNC1 | > 200 | > 200 µM | – |
| CC1=CC(=O)N(n2c(Cc3ccccc3)n[nH]c2=O)C1=O | > 200 | > 200 µM | – |
| Cc1cc2c(=O)c3ccc(Cl)cc3[nH]c2c(C(=O)O)c1C | – | – | inactive |
| CCOC(=O)C(/C=N/C(=S)Nc1c(C)cccc1C)=C(/O)c1ccccc1 | > 200 | > 200 µM | – |
| CC(Oc1ccc(OCC2CCCCC2)cc1)C(=O)NCCO (stereo unspecified) | > 295 | 41.7 µM | – |
| CC1(c2nc3ccccc3[nH]2)CCC(C(N)=O)C(C)(C)O1 (stereo unspecified) | > 200 | > 200 µM | – |
| Cc1csc(/N=C\c2c(O)c3ccccc3oc2=O)n1 | > 200 | 36.3 µM | – |
| O=C1Cc2csc3nc(=O)cc(n23)N1 | > 120 | > 120 µM | – |
| CCCCCCN1CCc2c(C)c(C#N)c3nc4ccccc4n3c21 | > 100 | 17.8 µM | – |
| O=c1[nH]c(=O)n(C2OC(CO)C(O)C2O)cc1OCc1ccccc1 (stereo unspecified) | > 708 | > 708 µM | – |

| SMILES | EC50 [µM] | IC50 | outcome |
| --- | --- | --- | --- |
| COC(=O)C(Cc1ccccc1I)C1=CCC2(CC1)OCCO2 (stereo unspecified) | > 200 | 49 µM | – |
| Cc1ncc([N+](=O)[O-])n1CC[N+](C)([O-])CCCCn1ccnc1[N+](=O)[O-] (stereo unspecified) | – | – | inactive |
| COc1ccccc1N1C(=O)C2c3[nH]c4ccccc4c3C3CCC(C(C)(C)C)CC3C2C1=O (stereo unspecified) | > 1.2 | > 1.2 µM | – |
| O=C1CCCC2=C1CC1=C(CCCC1=O)N2c1cccc2ccccc12 | 49 | 174 µM | – |
| O=C(O)Cc1cccc2c(=O)c3cccc([N+](=O)[O-])c3oc12 | > 200 | > 200 µM | – |
| CC(C)=CCC/C(C)=C/CC/C(C)=C/C1CCC(=O)C1(C)C (stereo unspecified) | > 85.1 | 41.7 µM | – |
| O=C(CCn1[nH]c(=O)c(Cl)c(Cl)c1=O)NNC(=O)C[n+]1ccccc1 | > 589 | > 589 µM | – |
| CCN(c1ccccc1)c1nc(N)nc(NS(=O)(=O)c2cc(C)c(Cl)cc2S)n1 | 70.8 | > 200 µM | – |
| CN(C)c1ccc(C=Nc2ccc(SSc3ccc(N=Cc4ccc(N(C)C)cc4)cc3)cc2)cc1 | > 200 | 25.1 µM | – |
| N#C/C=C/c1cccc(Br)c1 | > 47.9 | > 47.9 µM | – |
| CCSc1nc(N)c2c(-c3ccc(OC)c(OC)c3)c3c(nc2n1)CCCC3 | > 200 | > 200 µM | – |
| CCCCCCCCCCCCCCCCOCC(Cl)COP(=O)(O)OP(=O)(O)OCC1OC(n2cnc3c(N)ncnc32)C(O)C1O (stereo unspecified) | > 100 | > 100 µM | – |
| COc1ccc(-c2nnc(-c3nsc4ccccc34)o2)cc1 | > 17 | > 17 µM | – |
| O=C(CC1C(=O)Nc2ccccc2S1(=O)=O)Nc1ccc(Cl)cc1 (stereo unspecified) | > 5.5 | > 5.5 µM | – |
| C[n+]1c(-c2ccc(/C=N\Nc3nnc(S)n3/N=C/c3ccc(-c4cn5ccccc5[n+]4C)cc3)cc2)cn2ccccc21 | 66.1 | 67.6 µM | – |
| COc1ccc(-c2sc(/N=C/c3cc(Br)cc(Br)c3O)c(C#N)c2C)cc1OC | – | – | inactive |
| COc1ccc(/C=C2\CCC(C)/C(=C\c3ccc(OC)c(OC)c3)C2=O)cc1OC (stereo unspecified) | > 151 | 7.94 µM | – |
| Cc1cc(C)cc(Sc2c([N+](=O)[O-])ncn2C)c1 | > 27.5 | 16.2 µM | – |
| O=S(=O)(N=S(c1ccc(Cl)cc1)c1ccc(Cl)cc1)c1ccccc1 | > 24.5 | > 24.5 µM | – |

From PubChem BioAssay AID179 (DTP/NCI, 2004)
